24 molecules from patent EP0103381B1, “Substituted anthra(1,9-cd)pyrazol-6(2H)-ones” (WARNER-LAMBERT COMPANY, priority 1982, dated 1984) can be followed below.

Assay [1] relates to HCT-8 (human colon adenocarcinoma) cells. The experiment in a line: in vitro activity against human colon adenocarcinoma (HCT-8), cell count. The assay is classed as cell-based. Here is the method:
HCT-8 (human colon adenocarcinoma) cells are trypsinized using Trypsin-EDTA. A single cell suspension is achieved by passing the cells through a 26 gauge needle with a 20 cc syringe. A cell suspension is prepared using RPMI 1640 growth medium (available from Gibco Laboratories) +10% fetal calf serum +50 µg/ml garamycin with a cell concentration of approximately 30,000 cells/ml. The cell suspension is dispensed in Linbro 24-well plates; 1 ml/well. The plates are incubated for approximately 48 hrs at 37°C in a 5% C02 atmosphere. At this time test compounds are added in the appropriate concentration. Five µl of the 200 µg/ml stock solution is added to each well in a primary test. Ten pl of the appropriate dilution is added to each well for a titration test. The plates are reincubated an additional 60-65 hrs at 37°C in a 5% C02 atmosphere. The test is read by lysing the cells using a mix of cationic surfactant, glacial acetic acid and sodium chloride. […] of the lysed cell suspension from each well is added to 8 ml of diluent. Each sample is read with a Coulter counter (ZBI model). The activity of each sample is measured as a percentage of the controls and the data is reported as ID50, that is the molar quantity of drug required to kill 50% of the tumor cells.

In assay [2] the test system is lymphocytic leukemia P388. The experiment in a line: in vivo lymphocytic leukemia P388 test. Conditions: Mus musculus, P388, ip, 720 h, two single doses four days apart, read-out: T/C × 100 (Percent); for response vs control in vivo at 3.12 mg/kg: P388, Dose 3.12 mg/kg intraperitoneally; for response vs control in vivo at 12.5 mg/kg: P388, Dose 12.5 mg/kg intraperitoneally; for response vs control in vivo at 25 mg/kg: P388, Dose 25 mg/kg intraperitoneally; for response vs control in vivo at 50 mg/kg: P388, Dose 50 mg/kg intraperitoneally; for response vs control in vivo at 100 mg/kg: P388, Dose 100 mg/kg intraperitoneally; for response vs control in vivo at 6.25 mg/kg: P388, Dose 6.25 mg/kg intraperitoneally. Details: species or system mice. The gist of the method: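 CD2F mice (6–7 per group) were inoculated intraperitoneally with P388 leukemia ascitic cells. Compounds were then given i.p. as two doses four days apart at various levels. Survival over 30 days was expressed as treated/control time ratio, efficacy criterion T/C×100 >125%.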

In a further assay the test system is Escherichia coli. The experiment in a line: agar plate paper-disc inhibition zone screening. The following applies: read-out: Inhibition Zone Diameter mm (Dose mg/ml) E. Coli; for zone of inhibition at 1000 µg/mL: Dose 1.0 mg/ml; for zone of inhibition at 3000 µg/mL: Dose 3.0 mg/ml. The assay is classed as cell-based. The gist of the method:
(§1)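 Read-out: diameter (mm) of the inhibition zone around 12.7 mm paper discs after overnight (18-20 h) incubation at 37°C. Discs carried compound at 3,000-10 mcg/ml in alcohol, DMSO or DMF, final solvent <10%. Seeded agar trays used saline-suspended cells adjusted to 20-35% transmittancy.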

For another assay, the system named is Aerobacter aerogenes. The experiment in a line: agar plate paper-disc inhibition zone screening. Format: cell-based. Conditions: Klebsiella aerogenes, read-out: Inhibition Zone Diameter mm (Dose mg/ml) A. Aerogenes; for zone of inhibition at 500 µg/mL: Dose 0.5 mg/ml; for zone of inhibition at 3000 µg/mL: Dose 3.0 mg/ml. A digest of the protocol:
as §1

The subject of another assay is Streptococcus faecalis. The experiment in a line: agar plate paper-disc inhibition zone screening. Format: cell-based. Conditions: Enterococcus faecalis; Dose 3.0 mg/ml; read-out: Inhibition Zone Diameter mm (Dose mg/ml) S. Faecalis. A digest of the protocol: as §1
A further assay relates to Bacillus subtilis. The experiment in a line: agar plate paper-disc inhibition zone screening. The assay is classed as cell-based. Conditions: Dose 3.0 mg/ml, read-out: Inhibition Zone Diameter mm (Dose mg/ml) B. Subtilis. The gist of the method: as §1
For another assay, the system named is Penicillium avellaneum. The experiment in a line: agar plate paper-disc inhibition zone screening. The assay is classed as cell-based. The following applies: Hamigera avellanea; Dose 3.0 mg/ml; read-out: Inhibition Zone Diameter mm (Dose mg/ml) P. Avellaneum. The gist of the method:
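Mycelia and spores from a six-day 28°C agar culture, suspended in saline with 0.05% Tween 80 at 20% transmittancy, were seeded into molten agar trays. Compounds at 3,000, 1,000, 500, 100 and 10 mcg/ml (solvent <10%) were applied on 12.7 mm paper discs. After at least 20-24 h incubation, inhibition zone diameter was measured in mm.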

Where [3] appears, read: HCT-8 human colon adenocarcinoma cells, 60-65 hrs incubation with compound, Coulter counter cell count as percentage of controls, read-out: ID50 (the source's name).

Counter-ions that a name gives are not always drawn. Like-named read-outs stand apart in the source and are kept apart here.

With `O=C1c2cccc(O)c2-c2nn(CCNCCO)c3ccc(NCCNCCO)c1c23`, the IC50 in assay [1] (setting [3]) turned out to be 1100 nM.

`CNCCNc1ccc2c3c(nn2CCNCCO)-c2cccc(O)c2C(=O)c13`: in assay [1] (setting [3]), the IC50 amounted to 27 nM.

With `O=C1c2c(O)cccc2-c2nn(CCNCCO)c3ccc(NCCNCCO)c1c23`, in assay [1] (setting [3]), the IC50 worked out at 61 nM.

As for `NCCn1nc2c3c(c(NCCCNCCO)ccc31)C(=O)c1c(O)ccc(O)c1-2`, in assay [1] (setting [3]), the IC50 is 280 nM.

For the molecule `NCCCNc1ccc2c3c(nn2CCN)-c2c(O)ccc(O)c2C(=O)c13`, in assay [1] (setting [3]), the IC50 turned out to be 850 nM.

With `CNCCNc1ccc2c3c(nn2CCNCCO)-c2c(O)ccc(O)c2C(=O)c13`, the IC50 in assay [1] (setting [3]) was 400 nM.

Take `CN(CCO)CCn1nc2c3c(c(NCCNCCO)ccc31)C(=O)c1c(O)ccc(O)c1-2`: in assay [1] (setting [3]), the IC50 stood at 450 nM.

Take `CCN(CC)CC(O)Cn1nc2c3c(c(NCCN)ccc31)C(=O)c1c(O)ccc(O)c1-2` (stereo not drawn): the IC50 in assay [1] (setting [3]) is 460 nM.

As to `CCN(CC)CC(O)Cn1nc2c3c(c(NCCNCCO)ccc31)C(=O)c1c(O)ccc(O)c1-2` (stereo not drawn), the IC50 in assay [1] (setting [3]) worked out at 690 nM.

In the case of `CCN(CC)CCn1nc2c3c(c(NCCNC)ccc31)C(=O)c1c(O)ccc(O)c1-2`, the IC50 in assay [1] (setting [3]) was determined as 120 nM.

With `CN1CCN(c2ccc3c4c(nn3CCNCCO)-c3c(O)ccc(O)c3C(=O)c24)CC1`, the IC50 in assay [1] (setting [3]) was 540 nM.

On to `CN(C)CCn1nc2c3c(c(NCCNCCO)ccc31)C(=O)c1c(O)ccc(O)c1-2`, for which the IC50 in assay [1] (setting [3]) was 180 nM.

With `NCCNc1ccc2c3c(nn2CCN)-c2c(O)ccc(O)c2C(=O)c13` [7,10-(OH)2; (CH2)2NH2·2HCl; NH(CH2)2NH2], the IC50 in assay [1] (setting [3]) was 910 nM.

Consider `CN(C)CCn1nc2c3c(c(NCCN)ccc31)C(=O)c1c(O)ccc(O)c1-2` [7,10-(OH)2; (CH2)2NMe2·2HCl; NH(CH2)2NH2], for which the IC50 in assay [1] (setting [3]) stood at 140 nM.

In the case of `CN(C)CCn1nc2c3c(c(NCCCN)ccc31)C(=O)c1c(O)ccc(O)c1-2` [7,10-(OH)2; (CH2)2NMe2·2HCl; NH(CH2)3NH2], the IC50 in assay [1] (setting [3]) was determined as 1100 nM.

`CN(C)CCNc1ccc2c3c(nn2CCO)-c2c(O)ccc(O)c2C(=O)c13` [7,10-(OH)2; (CH2)2OH·HCl; NH(CH2)2NMe2]: the IC50 in assay [1] (setting [3]) amounted to 170 nM.

`CN(C)CCCn1nc2c3c(c(NCCCN)ccc31)C(=O)c1c(O)ccc(O)c1-2` [7,10-(OH)2; (CH2)3NMe2·2HCl; NH(CH2)3NH2]: the IC50 in assay [1] (setting [3]) worked out at 350 nM.

For the molecule `Cn1nc2c3c(c(NCCNCCO)ccc31)C(=O)c1c(O)ccc(O)c1-2` [Example 41, 7,10-Dihydroxy-5-[[2-[(2-hydroxyethyl)amino]ethyl]amino]-2-methylanthra[1,9-cd]pyrazol-6(2H)-one], the IC50 in assay [1] (Homo sapiens, HCT-8 cells, 60-65 hrs with compound, molar quantity of drug required to kill 50% of the tumor cells, read-out: ID50 Molar) was determined as 790 nM. Besides, in assay [2], the response vs control in vivo at 3.12 mg/kg was determined as 138%, the response vs control in vivo at 12.5 mg/kg came out at 140%, the response vs control in vivo at 25 mg/kg came to 150% and the response vs control in vivo at 50 mg/kg was 162%. The response vs control in vivo at 100 mg/kg in assay [2] stood at 174%.

With `CN1CCN(c2ccc3c4c(nn3CCNCCO)-c3c(O)ccc(O)c3C(=O)c24)CC1` [Example 64, 7,10-Dihydroxy-2-[2-[(2-hydroxyethyl)amino]ethyl]-5-(4-methyl-1-piperazinyl)anthra[1,9-cd]pyrazol-6(2H)-one], in the assay on Escherichia coli, the zone of inhibition at 1000 µg/mL worked out at 14 mm. For the same molecule, in the assay with Aerobacter aerogenes, the zone of inhibition at 500 µg/mL is 17 mm. For the same molecule, in the assay with Streptococcus faecalis, the zone of inhibition at 3000 µg/mL came out at 0 mm. The zone of inhibition at 3000 µg/mL with Bacillus subtilis was found to be 0 mm. Also, in assay [2], the response vs control in vivo at 6.25 mg/kg is 163%, the response vs control in vivo at 12.5 mg/kg was 169% and the response vs control in vivo at 25 mg/kg amounted to 150%. The zone of inhibition at 3000 µg/mL in the assay with Penicillium avellaneum amounted to 0 mm.

Regarding `CN(C)CCN(C)c1ccc2c3c(nn2CCNCCO)-c2c(O)ccc(O)c2C(=O)c13` [Example 65, 5-([2-(Dimethylamino)ethyl]methylamino]-7,10-dihydroxy-2-[2-[(2-hydroxyethyl)amino]ethyl]anthra[1,9-cd]pyrazol-6(2H)-one], the zone of inhibition at 3000 µg/mL turned out to be 15 mm in the assay on Escherichia coli, 0 mm in the assay on Streptococcus faecalis, 0 mm with Bacillus subtilis and 0 mm in the assay on Penicillium avellaneum. Further, in the assay on Aerobacter aerogenes, the zone of inhibition at 500 µg/mL came to 16 mm. The response vs control in vivo at 6.25 mg/kg in assay [2] was found to be 179%. For the same molecule, the response vs control in vivo at 12.5 mg/kg in assay [2] was determined as 188%.

With `NCCn1nc2c3c(c(NCCNCCO)ccc31)C(=O)c1c(O)ccc(O)c1-2` [Example 71, 2-(2-Aminoethyl)-7,10-dihydroxy-5-[[2-[(2-hydroxyethyl)amino]ethyl]amino]anthra[1,9-cd]pyrazol-6(2H)-one], in assay [1] (setting [3]), the IC50 is 1700 nM. In addition, the response vs control in vivo at 1.56 mg/kg in assay [2] (P388, Dose 1.56 mg/kg intraperitoneally) turned out to be 153%. In addition, in assay [2], the response vs control in vivo at 3.12 mg/kg is 160%, the response vs control in vivo at 6.25 mg/kg is 163%, the response vs control in vivo at 12.5 mg/kg amounted to 182% and the response vs control in vivo at 25 mg/kg was found to be 257%.

On to `COCCn1nc2c3c(c(NCCNCCO)ccc31)C(=O)c1c(O)ccc(O)c1-2` [Example 76, 7,10-Dihydroxy-5-[[2-[(2-hydroxyethyl)amino]ethyl]amino]-2-(2-methoxyethyl)anthra[1,9-cd]pyrazol-6(2H)-one], for which the zone of inhibition at 1000 µg/mL in the assay on Escherichia coli was found to be 14 mm. For the same molecule, the zone of inhibition at 3000 µg/mL in the assay on Aerobacter aerogenes was 14 mm; in the assay with Streptococcus faecalis, 0 mm; with Bacillus subtilis, 14 mm; in the assay with Penicillium avellaneum, 0 mm. For the same molecule, the response vs control in vivo at 12.5 mg/kg in assay [2] was 127%. Besides, the response vs control in vivo at 25 mg/kg in assay [2] is 127%. Also, the response vs control in vivo at 50 mg/kg in assay [2] stood at 135%. Moreover, the response vs control in vivo at 100 mg/kg in assay [2] amounted to 139%.

As for `CNCCn1nc2c3c(c(NCCNCCO)ccc31)C(=O)c1c(O)ccc(O)c1-2` [Example 93, 7,10-Dihydroxy-5-[[2-[(2-hydroxyethyl)amino]ethyl]amino]-2-[2-(methylamino)ethyl]anthra[1,9-cd]pyrazol-6(2H)-one], the IC50 in assay [1] (setting [3]) is 230 nM. Moreover, the response vs control in vivo at 12.5 mg/kg in assay [2] was 147%.

As to `CN(C)CCCn1nc2c3c(c(NCCN)ccc31)C(=O)c1c(O)ccc(O)c1-2` [Example 94, 5-[(2-Aminoethyl)amino]-2-[3-(dimethylamino)propyl]-7,10-dihydroxyanthra[1,9-cd]pyrazol-6(2H)-one], the zone of inhibition at 3000 µg/mL in the assay with Escherichia coli was 15 mm; with Aerobacter aerogenes, 15 mm; in the assay on Streptococcus faecalis, 0 mm; in the assay with Bacillus subtilis, 0 mm; in the assay with Penicillium avellaneum, 0 mm. Further, the response vs control in vivo at 3.12 mg/kg in assay [2] came out at 191%. In assay [2], the response vs control in vivo at 6.25 mg/kg came out at 186%. The response vs control in vivo at 12.5 mg/kg in assay [2] was 224%.
